# Results published in patent US4078049A, “Acetylcholine assay” (Hoffmann-La Roche Inc., priority 1977, dated 1978).
# pIC50: −log10 of the molar value.
# Test system: antibody in the antiserum of rabbit immunized by the acetylcholine bovine serum albumin immunogen
# Assay: Radioimmunoassay specificity: inhibition of binding of acetylcholine-H^3 to the antibody
# Experimental: The volume was adjusted to 0.5 ml with phosphate-buffered saline, pH 7.4, which is the optimal pH for the assay. […]. […] After 2 washings with 50% saturated ammonium sulfate, the precipitate was dissolved in 0.5 ml of water. […] The 12 ml washings were all collected in the vial. The radioactivity was then counted with a Beckman liquid scintillation counter. The dilution of the antiserum chosen for further studies was 1:50.
compound,measurement,setting,value
CC(=O)O [acetate],recognition by the antibody (competition with labelled acetylcholine),antiserum incubated with acetate in the presence of labelled acetylcholine,failed to recognize
"CC(=O)OCC[N+](C)(C)C [Acetylcholine, acetylcholine]",pIC50,"read-out: concentration producing 50% inhibition of binding of acetylcholine --H^3 to the antibody, antiserum 1:50, incubated 2 hours at 4° C, pH 7.4, eserine present, ammonium sulfate precipitation",10.52
